Tested on: HCT116
Assay: Cell colony formation assay
Type: cell-based
Conditions: 72 hours with drug, colonies counted after 7 days
Procedure: This example provides directions for growing cells and testing compounds of the invention for their effect on the growth of the cells. All cells were purchased from DCTDC Tumor Repository, NCI, NIH.
The cells were incubated in a CO2 incubator at 37° C. for 5 hours for attachment to the bottom of Petri dishes. Drugs were made fresh in medium at ten times the final concentration, and then 0.3 ml of this stock solution was added to the 2.7 ml of medium in the dish. The cells were then incubated with drugs for 72 hours at 37° C. At the end of the incubation the drug-containing media were decanted, the dishes were rinsed with 4 ml of Hank's Balance Salt Solution (HBSS), 5 ml of fresh medium was added, and the dishes were returned to the incubator for colony formation. The cell colonies were counted using colony counter after incubation for 7 days for HCT116 cells and PC-3 cells and 8 days for VM46 cells, respectively. Cell survival (%) was calculated, as shown in Table I below for HCT 116 cells.

| SMILES | In Vitro Efficacy: Survival (%) of HCT116 (10 nM) | In Vitro Efficacy: Survival (%) of HCT116 (100 nM) | In Vitro Efficacy: Survival (%) of HCT116 (1000 nM) |
| --- | --- | --- | --- |
| COc1cc([C@@H]2c3cc4c(cc3[C@H](OC(=O)COc3ccc(Br)cc3)[C@H]3COC(=O)[C@H]23)OCO4)cc(OC)c1OC [Compound 000320, Podophyllotoxin-4-O-ester of 4-bromophenoxyacetic acid] | 100% | 0% | 0% |
| COc1cc([C@@H]2c3cc4c(cc3[C@@H](O[C@@H]3O[C@@H]5CO[C@@H](C)O[C@H]5[C@H](O)[C@H]3O)[C@H]3COC(=O)[C@H]23)OCO4)cc(OC)c1O [Etoposide, reference compound] | 100% | – | – |
| COc1cc([C@@H]2c3cc4c(cc3[C@H](OC(=O)C3Cc5c([nH]c6ccccc56)CN3C(=O)OC(C)(C)C)[C@H]3COC(=O)[C@H]23)OCO4)cc(OC)c1OC (stereo partly drawn) [Compound 000301, Podophyllotoxin-4-O-ester of N—BOC-1,2,3,4-Tetrahydro-β-carboline-3-carboxylic acid] | – | 84.08% | 0% |
| COc1cc(C2c3cc4c(cc3C(OC(=O)CCC(=O)O)C3COC(=O)C23)OCO4)cc(OC)c1OC (stereo not drawn) [Compound 000201, Podophyllotoxin-4-O-ester of hemisuccinic acid] | – | 93.24% | 0% |
| COc1cc([C@@H]2c3cc4c(cc3[C@H](OC(=O)C(C)ON=C3c5cc([N+](=O)[O-])cc([N+](=O)[O-])c5-c5c3cc([N+](=O)[O-])cc5[N+](=O)[O-])[C@H]3COC(=O)[C@H]23)OCO4)cc(OC)c1OC (stereo partly drawn) [Compound 000222, Podophyllotoxin-4-O-ester of (+)-2-(2,4,5,7-tetranitro-9-fluorenylideaminooxy)-propionic acid] | 100% | 1.46% | 0% |
| COc1cc(C2c3cc4c(cc3C(OC(=O)COc3cccc(Cl)c3)C3COC(=O)C23)OCO4)cc(OC)c1OC (stereo not drawn) [Compound 000622, Podophyllotoxin-4-O-ester of 3-chlorophenoxyacetic acid] | 98.48% | 0% | 0% |
| COc1cc(C2c3cc4c(cc3C(OC(=O)CCCc3ccc(N(CCCl)CCCl)cc3)C3COC(=O)C23)OCO4)cc(OC)c1OC (stereo not drawn) [Compound 0003132, Podophyllotoxin-4-O-ester of 4-(4-dichloroethylamino) phenylbutyric acid] | – | 97.65% | 0% |
| COc1cc(C2c3cc4c(cc3C(OC(=O)COc3ccc(I)cc3)C3COC(=O)C23)OCO4)cc(OC)c1OC (stereo not drawn) [Compound 000614, Podophyllotoxin-4-O-ester of 4-iodophenoxyacetic acid] | 84.99% | 0% | 0% |
| COc1cc([C@@H]2c3cc4c(cc3[C@H](OC(=O)COc3ccc(F)cc3)[C@H]3COC(=O)[C@H]23)OCO4)cc(OC)c1OC [Compound 000615, Podophyllotoxin-4-O-ester of 4-fluorophenoxyacetic acid] | 100% | 0% | 0% |
| COc1cc(C2c3cc4c(cc3C(OC(=O)c3cc(-c5ccccc5)nc5ccccc35)C3COC(=O)C23)OCO4)cc(OC)c1OC (stereo not drawn) [Compound 000125, Podophyllotoxin-4-O-ester of 2-phenyl-4-quinolinecarboxylic acid] | – | 90.34% | 0% |
| COc1cc([C@@H]2c3cc4c(cc3[C@H](OC(=O)COc3ccc(Cl)cc3C)[C@H]3COC(=O)[C@H]23)OCO4)cc(OC)c1OC [Compound 000317, Podophyllotoxin-4-O-ester of 4-chloro-2-methylphenoxyacetic acid] | 99.49% | 0% | 0% |
